Experimental data published in patent US9078838B2, “Cosmetic or dermatological compositions comprising a mixture of essential oils, and its uses thereof, particularly for the care of sensitive or sensitized skin” (LVMH Recherche, priority 2008, dated 2015).
No end group written: not given here.

System: explants of human skin
Test: Release of histamine induced by CRH in explants of human skin (ex vivo cutaneous stress model, ELISA)
Assay type: cell-based
Experimental: To evaluate the activity of the combination of the invention on the release of histamine, which is an allergy mediator, a cutaneous stress model is reproduced ex vivo by applying a solution of CRH in the survival medium of explants of human skin.
Three explants of skin with a diameter of 8 mm are prepared from healthy human skin originating from surgical removal.
They are placed in 24-well plates and left to stand in an appropriate medium (MCDB 153, insulin, CaCl2, gentamycin) for 24 hours.
CRH (from Neosystem) is dissolved at a concentration of 231 μM in phosphate buffer (PBS) (pH 7.2).
First of all a 5% by weight (50 mg/ml) solution is prepared for each of the essential oils, in ethanol for the helichrysum oil and in DMSO for the cannabis oil.
The 5% by weight solutions are subsequently diluted at the time of use to 1/1000th in the survival medium of the explants, to give the different treatment solutions.
The combination of cannabis and helichrysum essential oils is tested in the form of a treatment solution containing these two essential oils, each at a concentration of 0.005% by weight (50:50 ratio). Each essential oil is likewise tested on its own in the form of a 0.005% by weight treatment solution.
In each well the explant is at the surface of the survival medium. […]

corticotropin-releasing hormone (SEEPPISLDLTFHLLREVLEMARAEQLAQQAHSNRKLMEII; not fully specified (C-terminus); ends and bridges not checked; UniProt P06850 154-194, looked up) [CRH, CRH (from Neosystem), stimulus of histamine release, positive control]
Stimulation of the release of histamine by skin explants (in words) (CRH on skin explants maintained in survival mode): induces significant stimulation of the release of histamine
Histamine (stimulated with CRH 7.7 μM for 2 hours, no essential oil pretreatment (positive control), solvent control 15.3 +/− 1.0): 21.8 ± 1.4 ng/mL
